From ChEMBL document CHEMBL4725367, “Novel anticancer Hsp90 inhibitor disubstituted pyrazolyl 2-aminopyrimidine compound 7t induces cell cycle arrest and apoptosis via mitochondrial pathway in MCF-7 cells” (Bioorg Med Chem Lett, 2020)

Columns and labels:
[1] = target: T1, Heat shock protein HSP90 (Homo sapiens) (UniProt P07900+P08238); experiment: Inhibition of HSP90 in human MCF7 cells assessed as cell cycle arrest by measuring accumulation at Sub-G1 phase at 2.5 uM measured after 24 hrs by RNaseA/propidium iodide staining based flow cytometric analysis (reference value: 3.75 %); set-up: scale not given: the % may be the effect or the level left
[2] = target: T1, Heat shock protein HSP90 (Homo sapiens); experiment: Inhibition of HSP90 in human MCF7 cells assessed as cell cycle arrest by measuring accumulation at G0/G1 phase at 2.5 uM measured after 24 hrs by RNaseA/propidium iodide staining based flow cytometric analysis (reference value: 39.10 %); set-up: scale not given: the % may be the effect or the level left
[3] = target: T1, Heat shock protein HSP90 (Homo sapiens); experiment: Inhibition of HSP90 in human MCF7 cells assessed as cell cycle arrest by measuring accumulation at Sub-G1 phase at 5 uM measured after 24 hrs by RNaseA/propidium iodide staining based flow cytometric analysis (reference value: 3.75 %); set-up: scale not given: the % may be the effect or the level left
[4] = target: T1, Heat shock protein HSP90 (Homo sapiens); experiment: Inhibition of HSP90 in human MCF7 cells assessed as cell cycle arrest by measuring accumulation at G0/G1 phase at 5 uM measured after 24 hrs by RNaseA/propidium iodide staining based flow cytometric analysis (reference value: 39.10 %); set-up: scale not given: the % may be the effect or the level left
[5] = target: T1, Heat shock protein HSP90 (Homo sapiens); experiment: Inhibition of HSP90 in human MCF7 cells assessed as cell cycle arrest by measuring accumulation at G2/M phase at 5 uM measured after 24 hrs by RNaseA/propidium iodide staining based flow cytometric analysis (reference value: 25.08 %); set-up: scale not given: the % may be the effect or the level left
[6] = target: T1, Heat shock protein HSP90 (Homo sapiens); experiment: Inhibition of HSP90 in human MCF7 cells assessed as cell cycle arrest by measuring accumulation at Sub-G1 phase at 10 uM measured after 24 hrs by RNaseA/propidium iodide staining based flow cytometric analysis (reference value: 3.75 %); set-up: scale not given: the % may be the effect or the level left
[7] = target: T1, Heat shock protein HSP90 (Homo sapiens); experiment: Inhibition of HSP90 in human MCF7 cells assessed as cell cycle arrest by measuring accumulation at S phase at 10 uM measured after 24 hrs by RNaseA/propidium iodide staining based flow cytometric analysis (reference value: 7.08 %); set-up: scale not given: the % may be the effect or the level left
[8] = target: T1, Heat shock protein HSP90 (Homo sapiens); experiment: Inhibition of HSP90 in human MCF7 cells assessed as cell cycle arrest by measuring accumulation at G2/M phase at 10 uM measured after 24 hrs by RNaseA/propidium iodide staining based flow cytometric analysis (reference value: 25.08 %); set-up: scale not given: the % may be the effect or the level left
[9] = target: T1, Heat shock protein HSP90 (Homo sapiens); experiment: Inhibition of HSP90 in human MCF7 cells assessed as induction of apoptosis by measuring live cells at 2.5 uM measured after 24 hrs by annexinV-FITC/propidium iodide staining based flow cytometry (reference value: 90.77 %); assay type: cell-based; set-up: scale not given: the % may be the effect or the level left
[10] = target: T1, Heat shock protein HSP90 (Homo sapiens); experiment: Inhibition of HSP90 in human MCF7 cells assessed as induction of apoptosis by measuring early apototic cells at 2.5 uM measured after 24 hrs by annexinV-FITC/propidium iodide staining based flow cytometry (reference value: 1.31 %); assay type: cell-based; set-up: scale not given: the % may be the effect or the level left
[11] = target: T1, Heat shock protein HSP90 (Homo sapiens); experiment: Inhibition of HSP90 in human MCF7 cells assessed as induction of apoptosis by measuring late apototic cells at 2.5 uM measured after 24 hrs by annexinV-FITC/propidium iodide staining based flow cytometry (reference value: 7.91 %); assay type: cell-based; set-up: scale not given: the % may be the effect or the level left
[12] = target: T1, Heat shock protein HSP90 (Homo sapiens); experiment: Inhibition of HSP90 in human MCF7 cells assessed as induction of apoptosis by measuring necrotic cells at 2.5 uM measured after 24 hrs by annexinV-FITC/propidium iodide staining based flow cytometry (reference value: 0.01 %); assay type: cell-based; set-up: scale not given: the % may be the effect or the level left
[13] = target: T1, Heat shock protein HSP90 (Homo sapiens); experiment: Inhibition of HSP90 in human MCF7 cells assessed as induction of apoptosis by measuring early apototic cells at 5 uM measured after 24 hrs by annexinV-FITC/propidium iodide staining based flow cytometry (reference value: 1.31 %); assay type: cell-based; set-up: scale not given: the % may be the effect or the level left
[14] = target: T1, Heat shock protein HSP90 (Homo sapiens); experiment: Inhibition of HSP90 in human MCF7 cells assessed as induction of apoptosis by measuring late apototic cells at 5 uM measured after 24 hrs by annexinV-FITC/propidium iodide staining based flow cytometry (reference value: 7.91 %); assay type: cell-based; set-up: scale not given: the % may be the effect or the level left
[15] = target: T1, Heat shock protein HSP90 (Homo sapiens); experiment: Inhibition of HSP90 in human MCF7 cells assessed as induction of apoptosis by measuring necrotic cells at 5 uM measured after 24 hrs by annexinV-FITC/propidium iodide staining based flow cytometry (reference value: 0.01 %); assay type: cell-based; set-up: scale not given: the % may be the effect or the level left
[16] = target: T1, Heat shock protein HSP90 (Homo sapiens); experiment: Inhibition of HSP90 in human MCF7 cells assessed as induction of apoptosis by measuring early apototic cells at 10 uM measured after 24 hrs by annexinV-FITC/propidium iodide staining based flow cytometry (reference value: 1.31 %); assay type: cell-based; set-up: scale not given: the % may be the effect or the level left
[17] = target: T1, Heat shock protein HSP90 (Homo sapiens); experiment: Inhibition of HSP90 in human MCF7 cells assessed as induction of apoptosis by measuring necrotic cells at 10 uM measured after 24 hrs by annexinV-FITC/propidium iodide staining based flow cytometry (reference value: 0.01 %); assay type: cell-based; set-up: scale not given: the % may be the effect or the level left
[18] = target: T1, Heat shock protein HSP90 (Homo sapiens); experiment: Inhibition of HSP90 in human MCF7 cells assessed as induction of apoptosis by measuring total apoptotic and dead cell population at 0.5 uM measured after 24 hrs by annexinV-FITC/propidium iodide staining based flow cytometry (reference value: 9.23 %); set-up: scale not given: the % may be the effect or the level left
[19] = target: T1, Heat shock protein HSP90 (Homo sapiens); experiment: Inhibition of HSP90 in human MCF7 cells assessed as induction of morphological changes by measuring membrane blebbing at 2.5 to 10 uM by acridine orange/ethidium bromide staining based fluorescence microscopy analysis; assay type: cell-based; conditions: dose microM 2.5-10
[20] = target: T1, Heat shock protein HSP90 (Homo sapiens); experiment: Inhibition of HSP90 in human MCF7 cells assessed as induction of morphological changes by measuring chromatin condensation and fragmentation in nucleus at 2.5 to 10 uM by acridine orange/ethidium bromide staining based fluorescence microscopy analysis; assay type: cell-based; conditions: dose microM 2.5-10
[21] = target: T1, Heat shock protein HSP90 (Homo sapiens); experiment: Inhibition of HSP90 in human MCF7 cells assessed as induction of morphological changes by measuring apoptotic body formation at 2.5 to 10 uM by acridine orange/ethidium bromide staining based fluorescence microscopy analysis; assay type: cell-based; conditions: dose microM 2.5-10
[22] = target: T1, Heat shock protein HSP90 (Homo sapiens); experiment: Inhibition of HSP90 in human MCF7 cells assessed as induction of nuclear morphological changes by measuring horse shoe shaped nuclei formation at 2.5 to 10 uM by DAPI staining based fluorescence microscopy analysis; assay type: cell-based; conditions: dose microM 2.5-10
[23] = target: T1, Heat shock protein HSP90 (Homo sapiens); experiment: Inhibition of HSP90 in human MCF7 cells assessed as induction of nuclear morphological changes by measuring nuclear fragmentation at 2.5 to 10 uM by DAPI staining based fluorescence microscopy analysis; assay type: cell-based; conditions: dose microM 2.5-10
[24] = target: T1, Heat shock protein HSP90 (Homo sapiens); experiment: Inhibition of HSP90 in human MCF7 cells assessed as induction of mitochondrial membrane potential loss by measuring cell population with intact mitochondrial membrane potential at 2.5 uM after 24 hrs by JC1 staining-based flow cytometry analysis (reference value: 92.39 %); set-up: scale not given: the % may be the effect or the level left
[25] = target: T1, Heat shock protein HSP90 (Homo sapiens); experiment: Inhibition of HSP90 in human MCF7 cells assessed as induction of mitochondrial membrane potential loss by measuring cell population with intact mitochondrial membrane potential at 5 uM after 24 hrs by JC1 staining-based flow cytometry analysis (reference value: 92.39 %); set-up: scale not given: the % may be the effect or the level left
[26] = target: T1, Heat shock protein HSP90 (Homo sapiens); experiment: Inhibition of HSP90 in human MCF7 cells assessed as induction of mitochondrial membrane potential loss by measuring cell population with intact mitochondrial membrane potential at 10 uM after 24 hrs by JC1 staining-based flow cytometry analysis (reference value: 92.39 %); set-up: scale not given: the % may be the effect or the level left
[27] = target: T1, Heat shock protein HSP90 (Homo sapiens); experiment: Inhibition of HSP90 in human MCF7 cells assessed as induction of mitochondrial membrane potential loss by measuring cell population with mitochondrial membrane potential collapse at 10 uM after 24 hrs by JC1 staining-based flow cytometry analysis (reference value: 6.53 %); set-up: scale not given: the % may be the effect or the level left
[28] = target: T1, Heat shock protein HSP90 (Homo sapiens); experiment: Inhibition of HSP90 in human MCF7 cells assessed as increase in ROS generation by measuring fluorescence intensity at 2.5 to 10 uM after 24 hrs by DCFDA staining based flow cytometry; assay type: cell-based; conditions: dose microM 2.5-10, time 24.0 hrs

## Nc1nc(-c2ccc(Br)cc2)cc(-c2cn(-c3ccc(Cl)cc3)nc2-c2ccc([N+](=O)[O-])cc2)n1
[1]
  Activity: 6.27%
[2]
  Activity: 35.2%
[3]
  Activity: 16.7%
[4]
  Activity: 28%
[5]
  Activity: 23%
[6]
  Activity: 23.7%
[7]
  Activity: 4.13%
[8]
  Activity: 20.1%
[9]
  Activity: 87.9%
[10]
  Activity: 1.94%
[11]
  Activity: 10.1%
[12]
  Activity: 0.07%
[13]
  Activity: 3.8%
[14]
  Activity: 18.6%
[15]
  Activity: 0.17%
[16]
  Activity: 4.11%
[17]
  Activity: 0.12%
[18]
  Activity: 12.1%
[19]
  inhibition: Dose-dependent effect
[20]
  inhibition: Dose-dependent effect
[21]
  inhibition: Dose-dependent effect
[22]
  inhibition: Dose-dependent effect
[23]
  inhibition: Dose-dependent effect
[24]
  Activity: 85.4%
[25]
  Activity: 75.3%
[26]
  Activity: 46%
[27]
  Activity: 53%
[28]
  inhibition: Dose-dependent effect
